The values below come from ChEMBL document CHEMBL4387750, “Backbone modifications in peptidic inhibitors of flaviviral proteases” (Bioorg Med Chem Lett, 2019).

Where a SMILES comes first, the peptide text is derived from it. [ ]: non-standard residue; d: D form. The star is where a group is joined. dPhg = N[C@@H](C(=O)O)c1ccccc1; Phg = N[C@H](C(=O)O)c1ccccc1; Bz = O=C(c1ccccc1)* A value given as a limit tells only on which side of the number the result lay.

The nature of series [1]: Metabolic stability assessed as alpha-chymotrypsin (unknown origin)-mediated drug degradation by measuring half life in pH 7.4 phosphate buffer incubated up to 60 mins at 37 degC by HPLC and UV analysis. It is filed as ADME. The conditions noted are these: human; for Stability: buffer, pH 7.4, 1 h.
Series [2] concerns the target Genome polyprotein (dengue virus type 2) (UniProt P29990). Put plainly: Inhibition of Dengue virus serotype 2 NS2B-NS3 protease at 50 uM preincubated with protein for 15 mins followed by Abz-Nle-Lys-Arg-Arg-Ser-3-(NO2)Tyr substrate addition and measured by continuous fluorometric analysis relative to control.
Series [3] concerns the target Genome polyprotein (dengue virus type 2, UniProt P29990). Put plainly: Inhibition of Dengue virus serotype 2 NS2B-NS3 protease preincubated with protein for 15 mins followed by Abz-Nle-Lys-Arg-Arg-Ser-3-(NO2)Tyr substrate addition and measured by continuous fluorometric analysis.
Series [4] in a line: Metabolic stability in Sprague-Dawley rat liver microsomes assessed as compound degradation by measuring half life incubated for 120 mins by HPLC and UV analysis. It is filed as ADME, Microsome. As to conditions: for Stability: microsomes, 2 h.
Series [5] concerns the target T1, Trypsin (Homo sapiens, UniProt P07477+P07478+P35030). Put plainly: Inhibition of trypsin (unknown origin) at 50 uM preincubated with protein for 15 mins followed by boc-Val-Pro-Arg-AMC substrate addition and measured by continuous fluorometric analysis relative to control. It is filed as protein assay.
For series [6], the target named is T1, Trypsin. Kind of series: Metabolic stability assessed as trypsin (unknown origin)-mediated drug degradation by measuring half life in pH 7.5 Tris buffer incubated up to 60 mins at 37 degC by HPLC and UV analysis. The conditions noted are these: pH 7.5, 1 h. It is filed as ADME, protein assay.
The target of series [7] is Genome polyprotein (West Nile virus, UniProt P06935). Put plainly: Inhibition of West Nile virus NS2B-NS3 protease preincubated with protein for 15 mins followed by Abz-Gly-Leu-Lys-Arg-Gly-Gly-3-(NO2)-Tyr substrate addition and measured by continuous fluorometric analysis.
Series [8] has as its target Prothrombin (Homo sapiens) (UniProt P00734). Put plainly: Inhibition of human thrombin at 25 uM preincubated with protein for 15 mins followed by boc-Val-Pro-Arg-AMC substrate addition and measured after 10 mins by continuous fluorometric analysis relative to control.
Series [9] has as its target Genome polyprotein (West Nile virus) (UniProt P06935). Put plainly: Inhibition of West Nile virus NS2B-NS3 protease preincubated with protein for 15 mins followed by Abz-Gly-Leu-Lys-Arg-Gly-Gly-3-(NO2)-Tyr substrate addition and measured by continuous fluorometric analysis relative to control. The arrangement: concentration or dose not given beside the values.
A short description of series [10]: Metabolic stability in Sprague-Dawley rat liver microsomes assessed as compound remaining after 120 mins by HPLC and UV analysis. It is filed as ADME, Microsome. As to conditions: read-out: Stability. A general note: Liver microsomes are a subcellular fraction often used to study metabolism.

Chain of Genome polyprotein (West Nile virus, UniProt P06935) (P06935 1371-1501 limits assumed): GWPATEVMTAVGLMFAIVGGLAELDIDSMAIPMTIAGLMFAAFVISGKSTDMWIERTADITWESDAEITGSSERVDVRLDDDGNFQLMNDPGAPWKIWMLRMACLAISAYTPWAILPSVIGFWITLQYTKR
Chain of Genome polyprotein (West Nile virus, UniProt P06935) (P06935 1502-2120 limits assumed): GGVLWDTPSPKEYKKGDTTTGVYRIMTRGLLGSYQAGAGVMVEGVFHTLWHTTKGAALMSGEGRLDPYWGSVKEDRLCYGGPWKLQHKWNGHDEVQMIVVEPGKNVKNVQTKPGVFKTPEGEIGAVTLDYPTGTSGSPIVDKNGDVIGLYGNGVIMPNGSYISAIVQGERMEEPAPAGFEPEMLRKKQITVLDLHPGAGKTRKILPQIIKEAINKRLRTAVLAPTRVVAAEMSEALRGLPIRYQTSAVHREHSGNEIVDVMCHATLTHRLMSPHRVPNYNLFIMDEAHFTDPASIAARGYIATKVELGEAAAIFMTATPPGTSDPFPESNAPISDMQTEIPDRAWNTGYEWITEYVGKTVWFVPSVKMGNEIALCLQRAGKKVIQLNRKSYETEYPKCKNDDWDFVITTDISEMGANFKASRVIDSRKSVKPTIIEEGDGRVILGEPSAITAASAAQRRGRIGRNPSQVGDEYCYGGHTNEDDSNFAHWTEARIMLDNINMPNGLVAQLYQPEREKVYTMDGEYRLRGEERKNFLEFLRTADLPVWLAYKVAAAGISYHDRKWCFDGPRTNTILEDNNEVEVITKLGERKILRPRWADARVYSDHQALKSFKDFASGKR
Chain of Genome polyprotein (West Nile virus) (P06935 whole entry): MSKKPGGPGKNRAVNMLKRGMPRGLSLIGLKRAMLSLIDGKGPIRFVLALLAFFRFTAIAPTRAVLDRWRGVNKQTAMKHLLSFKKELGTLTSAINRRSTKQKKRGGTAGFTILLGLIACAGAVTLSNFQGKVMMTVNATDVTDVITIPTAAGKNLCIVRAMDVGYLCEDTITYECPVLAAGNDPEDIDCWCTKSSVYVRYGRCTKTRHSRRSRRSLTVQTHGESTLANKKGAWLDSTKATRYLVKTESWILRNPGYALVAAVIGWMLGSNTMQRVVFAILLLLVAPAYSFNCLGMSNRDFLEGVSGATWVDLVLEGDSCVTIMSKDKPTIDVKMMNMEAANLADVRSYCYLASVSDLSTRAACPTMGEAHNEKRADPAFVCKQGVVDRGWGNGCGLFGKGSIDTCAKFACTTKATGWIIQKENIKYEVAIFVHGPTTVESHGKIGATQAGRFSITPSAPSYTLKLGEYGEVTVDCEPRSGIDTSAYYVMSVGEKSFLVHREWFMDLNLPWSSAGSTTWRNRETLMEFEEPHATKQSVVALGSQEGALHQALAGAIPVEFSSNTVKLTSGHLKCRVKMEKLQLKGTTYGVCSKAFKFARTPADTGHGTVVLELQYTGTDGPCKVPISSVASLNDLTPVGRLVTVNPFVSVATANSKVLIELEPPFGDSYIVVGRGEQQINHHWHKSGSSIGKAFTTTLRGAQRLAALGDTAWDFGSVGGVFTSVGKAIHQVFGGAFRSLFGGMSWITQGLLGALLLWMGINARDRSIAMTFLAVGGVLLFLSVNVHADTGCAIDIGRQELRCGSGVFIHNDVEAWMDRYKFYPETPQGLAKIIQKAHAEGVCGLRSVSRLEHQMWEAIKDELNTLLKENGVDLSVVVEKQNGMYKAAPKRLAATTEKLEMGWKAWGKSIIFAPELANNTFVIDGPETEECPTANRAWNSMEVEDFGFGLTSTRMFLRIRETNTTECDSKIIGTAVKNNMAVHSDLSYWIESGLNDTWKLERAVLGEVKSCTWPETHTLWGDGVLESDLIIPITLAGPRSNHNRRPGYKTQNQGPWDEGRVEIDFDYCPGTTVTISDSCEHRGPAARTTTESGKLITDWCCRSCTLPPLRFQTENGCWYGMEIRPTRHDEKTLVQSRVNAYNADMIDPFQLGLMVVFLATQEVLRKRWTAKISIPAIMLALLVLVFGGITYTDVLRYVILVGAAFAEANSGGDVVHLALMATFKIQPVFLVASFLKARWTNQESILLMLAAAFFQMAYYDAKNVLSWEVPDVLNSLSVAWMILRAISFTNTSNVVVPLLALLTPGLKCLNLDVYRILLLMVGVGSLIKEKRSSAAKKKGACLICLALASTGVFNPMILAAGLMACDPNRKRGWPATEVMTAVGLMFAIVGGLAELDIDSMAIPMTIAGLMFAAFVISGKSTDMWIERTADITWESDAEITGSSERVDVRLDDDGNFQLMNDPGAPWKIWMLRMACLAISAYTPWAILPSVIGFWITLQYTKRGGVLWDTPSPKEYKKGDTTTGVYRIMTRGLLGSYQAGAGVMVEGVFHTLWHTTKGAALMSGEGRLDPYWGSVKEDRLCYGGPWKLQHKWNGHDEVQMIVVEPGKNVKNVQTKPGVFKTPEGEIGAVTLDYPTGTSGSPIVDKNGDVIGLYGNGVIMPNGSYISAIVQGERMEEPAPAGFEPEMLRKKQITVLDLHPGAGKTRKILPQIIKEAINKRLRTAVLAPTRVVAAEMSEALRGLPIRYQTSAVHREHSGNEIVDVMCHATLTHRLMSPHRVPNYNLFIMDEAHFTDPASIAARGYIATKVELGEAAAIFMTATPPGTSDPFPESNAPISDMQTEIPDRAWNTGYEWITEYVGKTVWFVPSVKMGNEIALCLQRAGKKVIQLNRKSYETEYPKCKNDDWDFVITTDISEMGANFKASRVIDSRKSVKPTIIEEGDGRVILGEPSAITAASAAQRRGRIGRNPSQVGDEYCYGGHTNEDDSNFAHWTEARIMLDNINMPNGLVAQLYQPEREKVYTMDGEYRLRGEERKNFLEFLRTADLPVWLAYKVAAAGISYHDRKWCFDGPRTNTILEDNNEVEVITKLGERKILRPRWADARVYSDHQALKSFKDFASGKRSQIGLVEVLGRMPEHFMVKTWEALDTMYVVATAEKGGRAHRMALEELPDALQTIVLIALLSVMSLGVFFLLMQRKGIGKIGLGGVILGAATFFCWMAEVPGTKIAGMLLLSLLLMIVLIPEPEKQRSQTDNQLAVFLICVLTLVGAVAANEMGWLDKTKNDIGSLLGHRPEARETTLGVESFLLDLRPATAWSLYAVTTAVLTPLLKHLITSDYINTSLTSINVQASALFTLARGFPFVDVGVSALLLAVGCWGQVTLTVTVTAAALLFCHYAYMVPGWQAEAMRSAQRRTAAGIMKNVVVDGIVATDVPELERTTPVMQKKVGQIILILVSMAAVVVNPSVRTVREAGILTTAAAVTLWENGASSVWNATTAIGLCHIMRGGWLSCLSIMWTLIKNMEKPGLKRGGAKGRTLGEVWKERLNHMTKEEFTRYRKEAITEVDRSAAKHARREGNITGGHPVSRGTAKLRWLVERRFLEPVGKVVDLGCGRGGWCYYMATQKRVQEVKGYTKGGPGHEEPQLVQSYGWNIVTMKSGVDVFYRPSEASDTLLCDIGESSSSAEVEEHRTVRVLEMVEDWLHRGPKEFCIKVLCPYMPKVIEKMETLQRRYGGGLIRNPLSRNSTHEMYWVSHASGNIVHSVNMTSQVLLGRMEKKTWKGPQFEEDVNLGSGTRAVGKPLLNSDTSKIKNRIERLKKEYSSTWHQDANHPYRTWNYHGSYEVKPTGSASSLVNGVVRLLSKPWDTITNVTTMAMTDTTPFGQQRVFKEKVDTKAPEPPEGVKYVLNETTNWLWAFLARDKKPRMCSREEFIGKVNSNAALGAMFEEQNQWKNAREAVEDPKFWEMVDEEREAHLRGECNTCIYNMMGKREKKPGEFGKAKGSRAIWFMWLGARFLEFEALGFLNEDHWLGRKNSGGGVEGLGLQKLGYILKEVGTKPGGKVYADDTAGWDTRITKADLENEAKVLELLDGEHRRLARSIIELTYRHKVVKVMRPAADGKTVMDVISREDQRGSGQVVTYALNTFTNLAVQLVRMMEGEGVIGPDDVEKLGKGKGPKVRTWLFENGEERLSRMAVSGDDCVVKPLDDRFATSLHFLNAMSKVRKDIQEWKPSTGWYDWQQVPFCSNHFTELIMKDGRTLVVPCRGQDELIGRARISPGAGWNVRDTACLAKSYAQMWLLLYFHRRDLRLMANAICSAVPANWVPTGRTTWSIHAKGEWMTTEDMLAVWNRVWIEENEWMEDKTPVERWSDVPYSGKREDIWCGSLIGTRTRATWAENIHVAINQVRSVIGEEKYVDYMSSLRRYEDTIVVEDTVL

As a reminder, the inhibition is the drop in the measured response relative to a control, in per cent. As a reminder, the IC50 is the concentration at which inhibition is half-maximal. `C[C@](NC(=O)[C@H](CCCCN)NC(=O)[C@H](CCCNC(=N)N)NC(=O)c1ccccc1)(C(N)=O)c1ccccc1`: the Stability entry (in [1]; in series [4]; at Trypsin [6]) was “Stable” each time. Besides, the inhibition in [2] worked out at 99.1%; on Trypsin [5], 11.8%; in series [8], 6.5%; in series [9] it was 82.5%. For the same compound, the half-inhibitory concentration (IC50) against Genome polyprotein [3] is 0.6 µM; against Genome polyprotein [7] it was 14.3 µM.

For the compound `N=C(N)NCCC[C@H](NC(=O)c1ccccc1)C(=O)N[C@@H](CCCCN)C(=O)N[C@@H](CC(N)=O)c1ccccc1`, the inhibition in series [2] was 17.6%; on Trypsin [5], 7.5%; in series [8] it was under 5%; in [9] it was 12.6%.

On to `N=C(N)NCCC[C@@H](NC(=O)[C@@H](N)Cc1ccc(O)cc1)C(=O)N[C@@H](Cc1ccccc1)C(=O)N[C@@H](Cc1ccccc1)C(N)=O` (H-Y[dR]FF-NH2), for which, in series [10], the remaining at 2 h came to 85%. Also, the Stability result is “Unstable” in series [1] and “Stable” at Trypsin [6].

Regarding `CN(C(=O)c1ccccc1)[C@@H](CCCNC(=N)N)C(=O)N[C@@H](CCCCN)C(=O)N[C@@H](C(N)=O)c1ccccc1`, the Stability result (in [1]; in series [4]; on Trypsin [6]) was “Stable” each time. In addition, the inhibition is 93.6% in [2], under 5% on Trypsin [5], under 5% in series [8] and 48.4% in series [9]. The half-maximal inhibitory concentration (IC50) against Genome polyprotein [3] came to 3.6 µM.

Regarding `N=C(N)NCCC[C@H](NC(=O)c1ccccc1)C(=O)N[C@@H](CCCCN)CC(=O)N(CC(N)=O)c1ccccc1`, the inhibition in series [2] was 22.7%; against Trypsin [5], under 5%; in series [8], under 5%; in series [9] it was 17.7%.

On to `N=C(N)NCCCN(CC(=O)N[C@@H](CCCCN)C(=O)N[C@@H](C(N)=O)c1ccccc1)C(=O)c1ccccc1`, for which the inhibition in [2] was 32.7%; against Trypsin [5], under 5%; in [8], under 5%; in series [9] it was 12.4%.

For the compound `N=C(N)NCCC[C@H](NC(=O)c1ccccc1)C(=O)N(CCCCN)CC(=O)N[C@@H](C(N)=O)c1ccccc1`, the inhibition in [2] is under 5%; at Trypsin [5] it was 10.6%; in series [8], under 5%; in [9] it was 18.4%.

For the compound `CC(NC(=O)[C@H](CCCCN)NC(=O)[C@H](CCCNC(=N)N)NC(=O)c1ccccc1)(C(N)=O)c1ccccc1` (stereo partly drawn), the inhibition in [2] is 97.8%; on Trypsin [5], under 5%; in series [8], 9.1%; in series [9], 59.8%. The results for the 50% inhibitory concentration (IC50) against Genome polyprotein [3] and against Genome polyprotein [7] were 1.3 µM and 24.3 µM, respectively.

Regarding `N=C(N)NCCC[C@H](NC(=O)c1ccccc1)C(=O)N[C@@H](CCCCN)C(=O)N[C@@H](C(N)=O)c1ccc(OCc2ccccc2)cc1`, the inhibition was 100% in series [2], 18.4% against Trypsin [5], 7.8% in series [8] and 101% in series [9]. Moreover, the half-inhibitory concentration (IC50) was determined as 0.4 µM against Genome polyprotein [3] and 0.8 µM on Genome polyprotein [7]. For the same compound, the Stability result (in [4]; on Trypsin [6]) was “Stable” in each case.

With `CN(C(=O)[C@H](CCCCN)NC(=O)[C@H](CCCNC(=N)N)NC(=O)c1ccccc1)[C@@H](C(N)=O)c1ccccc1`, the inhibition is 33% in series [2], under 5% against Trypsin [5], under 5% in series [8] and 36.7% in series [9].

In general, half-life refers to how long it takes for the measured level to halve. In the case of `N=C(N)NCCC[C@H](NC(=O)c1ccccc1)C(=O)N[C@@H](CCCCN)C(=O)N[C@@H](C(N)=O)c1ccccc1` (Bz-Arg-Lys-[dPhg]-NH2), the half-life in [1] (alpha-chymotrypsin in phosphate buffer, pH 7.4) came to 11 min. Moreover, the inhibition in [2] was 99.3%; at Trypsin [5], 12.5%; in series [8], under 5%; in series [9], 99%. The IC50 against Genome polyprotein [3] and against Genome polyprotein [7] was 3.8 µM throughout. For the same compound, the Stability result (in series [4]; on Trypsin [6]) was “Stable” throughout.

For `N=C(N)NCCC[C@H](NC(=O)c1ccccc1)C(=O)N[C@@H](CCCCN)C(=O)N[C@H](C(N)=O)c1ccccc1` (Bz-Arg-Lys-[Phg]-NH2), the inhibition was 95% in series [2], under 5% against Trypsin [5] and under 5% in series [8]. This compound registered an IC50 against Genome polyprotein [3] of 3.3 µM.

Consider `N=C(N)NCCC[C@H](NC(=O)c1ccccc1)C(=O)N[C@@H](CCCCN)C(=O)NC(C(N)=O)(c1ccccc1)c1ccccc1`, for which the inhibition was 20.6% in [2], 45.5% on Trypsin [5], under 5% in series [8] and 33.3% in series [9].

Take `CN(C(=O)c1ccccc1)[C@@H](CCCNC(=N)N)C(=O)N[C@@H](CCCCN)C(=O)N[C@@](C)(C(N)=O)c1ccccc1`: the inhibition was 93.9% in series [2], 10.9% at Trypsin [5], under 5% in series [8] and 50.8% in series [9]. Further, the IC50 on Genome polyprotein [3] turned out to be 3 µM.

Take `CN(C(=O)[C@H](CCCNC(=N)N)NC(=O)c1ccccc1)[C@@H](CCCCN)C(=O)N[C@@H](C(N)=O)c1ccccc1`: the inhibition was 36.3% in series [2], under 5% against Trypsin [5], under 5% in [8] and under 5% in series [9].

Take `N=C(N)NCCC[C@H](N[C@H](c1ccccc1)C(F)(F)F)C(=O)N[C@@H](CCCCN)C(=O)N[C@@H](C(N)=O)c1ccccc1`: the inhibition is 43.7% in [2], under 5% against Trypsin [5], under 5% in series [8] and 24.6% in series [9].

Take `N=C(N)NCCC[C@H](NC(=O)C(=O)c1ccccc1)C(=O)N[C@@H](CCCCN)C(=O)N[C@@H](C(N)=O)c1ccccc1`: the inhibition in series [2] was 94%; at Trypsin [5], 33.5%; in series [8], under 5%; in series [9], 43.2%. 4.1 µM corresponded to half-maximal inhibition against Genome polyprotein [3] (IC50).

With `CCC(NC(=O)[C@H](CCCCN)NC(=O)[C@H](CCCNC(=N)N)NC(=O)c1ccccc1)(C(N)=O)c1ccccc1` (stereo partly drawn), the inhibition is 35.2% in series [2], 8.7% on Trypsin [5], under 5% in [8] and 12.1% in series [9].

For `N=C(N)NCCC[C@H](NC(=O)c1ccccc1)C(=O)N[C@@H](CCCCN)CC(=O)N[C@@H](C(N)=O)c1ccccc1`, the inhibition was 31.8% in [2], under 5% against Trypsin [5], under 5% in series [8] and 14.6% in [9].

With `C[C@]12CC[C@H]3[C@@H](CCC4=CC(=O)CC[C@@]43C)[C@@H]1CC[C@@H]2O` [TESTOSTERONE], the half-life in series [4] (Sprague-Dawley, liver microsomes) was 9 to 35 min.

On to `N=C(N)NCCC[C@H](N[C@@H](c1ccccc1)C(F)(F)F)C(=O)N[C@@H](CCCCN)C(=O)N[C@@H](C(N)=O)c1ccccc1`, for which the inhibition in series [2] is 32.1%; against Trypsin [5], under 5%; in series [8], under 5%; in [9] it was 6%.

Consider `C[C@@](NC(=O)[C@H](CCCCN)NC(=O)[C@H](CCCNC(=N)N)NC(=O)c1ccccc1)(C(N)=O)c1ccccc1`, for which the inhibition in [2] was 81.7%; against Trypsin [5], 20.7%; in series [8] it was under 5%; in series [9], 47.4%. At Genome polyprotein [3], this compound yielded an IC50 of 9.5 µM.

As for `CN(C(=O)c1ccccc1)[C@@H](CCCNC(=N)N)C(=O)N[C@@H](CCCCN)C(=O)N[C@@H](C(N)=O)c1ccc(OCc2ccccc2)cc1`, the inhibition in series [2] is 97.8%; against Trypsin [5], under 5%; in series [8] it was 5.5%; in [9] it was 92%. The concentration for half-maximal inhibition (IC50) against Genome polyprotein [3] worked out at 1.6 µM; on Genome polyprotein [7], 7.1 µM. In addition, the Stability entry in [4] is listed as “Stable”.

For the compound `N=C(N)NCCC[C@H](NC(=O)c1ccccc1)C(=O)N[C@@H](CCCCN)C(=O)N(CC(N)=O)c1ccccc1`, the inhibition in series [2] was 28.9%; against Trypsin [5], under 5%; in series [8], under 5%; in [9], 19.8%.
